Structures are written as SMILES.

Data on 5 molecules can be found in US10201516B2 (The Regents of the University of California, priority 2014, dated 2019).

For series [1], the system named is β-catenin/TCF/LEF transcriptional activity. The series can be described thus: TOPFlash assay in NIH/3T3 cells. Format: cell-based, mouse. The note with it: for β-catenin/TCF/LEF transcriptional activity (TOPFlash): Ras^V12-transformed NIH/3T3 cells, 0.5 μM for 12 hours (FIG. 10E). How it is done:
(§1) Tankyrase inhibitors, JW55, Cardinogenl, and JW67, were purchased from R&D Systems. The cells were treated with the inhibitors at 0.5 μM for 12 hours for TOPFlash assays. For sphere formation assays, the cells were cultured in complete medium with different Tankyrase inhibitors.
Cells were transfected with TOPFlash (Addgene#12456), FOPFlash (Addgene#12457) or pGL3-NFAT (Addgene#17870) luciferase reporter constructs by using Fugene6 (Roche). 48th hour post-transfection the luciferase activities in cell lysates were measured using Bright-Glo Luciferase Assay System (Promega) according to the manufacturer's instructions.

Another series has as its system NIH/3T3 cells. In words: Sphere formation assay in NIH/3T3 cells. Type of series: cell-based, mouse. The conditions noted are these: for sphere forming efficiency: K-Ras^V12 transformed NIH/3T3 cells (FIG. 10F); for sphere formation: vector control or H-Ras^V12 transformed NIH/3T3 (FIG. 10F). How it is done:
as §1
Cells were harvested, counted and seeded into Ultra Low Attachment Culture 96-well plate (Corning Life Science, Catalog number 3261) at 10 or 100 cells per well. The seeded cells and formed spheres were maintained in low serum containing medium with 0.1% FBS or CS. The initiated spheres were observed twice and week. The numbers of formed spheres were counted one month after seeding. The spheres were harvested and re-seeded into 12-well or 24-well plate with complete growth medium at one sphere per well. The re-plated colonies were stained and visualized by 0.05% crystal violet staining (in […]).

For the next series, the system named is Fzd8. The series can be described thus: Western blot of Fzd8 expression in NIH/3T3 cells. Format: cell-based, mouse. The note with it: NIH/3T3-H-Ras^V12 cells (FIG. 3B). How it is done: (§2) Experimental cells were washed twice in ice-cold PBS and lysed in 1% Triton lysis buffer [25 mmol/L Tris pH 7.5, 150 mmol/L NaCl, 1% Triton X-100, 1 mmol/L EDTA, 1 mmol/L EGTA, 20 mmol/L NaF, 1 mmol/L […], and 1 mmol/L DTT] supplemented with a protease inhibitor cocktail (Roche) and cleared by centrifugation. Protein concentrations were determined by the Bio-Rad Protein Assay (Bio-Rad). Equal amounts of protein extracts were resolved using SDS-PAGE (NuPAGE; Invitrogen), transferred to a nitrocellulose membrane, and immunoblotted with primary antibodies indicated, followed by secondary antibodies labeled with either IRDye800 (Rockland) or Alexa Fluor 680 (Molecular Probes) and were visualized using a LI-COR Odyssey scanner. A complete list of primary antibodies is provided in the Extended Experimental Procedures.
In general terms: In western blotting, separated proteins are transferred to a membrane and probed.

In the next series the test system is CaMKii. The series can be described thus: Western blot of phospho-CaMKii in Ras-transformed NIH/3T3 cells (and human pancreatic cancer cell lines). Type of series: cell-based, mouse. The conditions noted are these: NIH/3T3-H-Ras^V12 and vector control cells (FIG. 3B). How it is done:
as §2

The conditions of series [2]: PKC activators, literature; cited from earlier work.

In the case of `COc1ccc(C2(CNC(=O)c3ccc(NC(=O)c4ccco4)cc3)CCOCC2)cc1` [JW55], the “β-catenin/TCF/LEF transcriptional activity (TOPFlash)” value in series [1] is “successfully repressed β-catenin/TCF/LEF transcriptional activity”. Moreover, in the series on NIH/3T3 cells, the sphere forming efficiency entry is “still maintained their sphere forming efficiency” and the sphere formation entry is recorded as “inhibited sphere formation”.
The like results for `O=C1Nc2ccccc2C12OCC1(CO2)COC2(OC1)C(=O)Nc1ccccc12` (centres unmarked) [JW67] were, in that order, “successfully repressed β-catenin/TCF/LEF transcriptional activity”, “still maintained their sphere forming efficiency” and “inhibited sphere formation”.
For the molecule `COc1ccc(S(=O)(=O)N(CCO)c2ccccc2CN(C)C/C=C/c2ccc(Cl)cc2)cc1` [KN-93], the β-catenin transcriptional activity entry in series [1] (NIH/3T3-H-Ras^V12 cells (FIG. 3C)) is “increased β-catenin transcriptional activity”. Besides, the Fzd8 expression entry in the series with Fzd8 is given as “reduced Fzd8 expression”. Further, in the series with CaMKii, the “phosphorylation of CaMKii” value is listed as “reduced phosphorylation of CaMKii”. Moreover, the “sphere forming efficiency and size of spheroid colonies” value in the series on NIH/3T3 cells (NIH/3T3-H-Ras^V12 cells (FIG. 3D)) is “dramatically enhanced the sphere forming efficiency and the size of spheroid colonies”.
In the case of `CCCCCCCCCCCCCC(=O)O[C@@H]1[C@@H](C)[C@@]2(O)[C@@H](C=C(CO)C[C@]3(O)C(=O)C(C)=C[C@@H]23)[C@@H]2C(C)(C)[C@]12OC(C)=O` [PMA, phorbol-12-myristate-13-acetate, reference compound], the tumor promotion entry in series [2] is on record as “tumor promoting”.
With `c1coc(-c2nnc3sc(C4CCCCC4)nn23)c1` [cardionogen1], the “β-catenin/TCF/LEF transcriptional activity (TOPFlash)” value in series [1] is “successfully repressed β-catenin/TCF/LEF transcriptional activity”. In the series on NIH/3T3 cells, the sphere forming efficiency result is listed as “still maintained their sphere forming efficiency” and the sphere formation entry is recorded as “inhibited sphere formation”.
